From paper PMC7396449, “Biochemical determinants of the IGFBP‐3–hyaluronan interaction” (FEBS Open Bio, 2020)
Ends that are not written are not given here.

Legend:
[1] = molecular target: T1, IGFBP‐3 Nonglycosylated (Homo sapiens, UniProt P17936); assay: ELISA binding of biotin-HA or biotin-HN to immobilized nonglycosylated IGFBP-3; conditions: nonglycosylated IGFBP-3 (50 nM) coated; 0–2 μM biotin-ligand, overnight 4 °C; mean ± SD of three independent experiments in triplicate; read-out: concentration of biotin-HA or biotin-HN that produced 50% of maximum binding
T1 construct: We therefore elected to use the full‐length IGFBP‐3 protein to examine the effect of glycosylation; purchased MyBioSource MBS142177
T1 sequence (P17936 28-291): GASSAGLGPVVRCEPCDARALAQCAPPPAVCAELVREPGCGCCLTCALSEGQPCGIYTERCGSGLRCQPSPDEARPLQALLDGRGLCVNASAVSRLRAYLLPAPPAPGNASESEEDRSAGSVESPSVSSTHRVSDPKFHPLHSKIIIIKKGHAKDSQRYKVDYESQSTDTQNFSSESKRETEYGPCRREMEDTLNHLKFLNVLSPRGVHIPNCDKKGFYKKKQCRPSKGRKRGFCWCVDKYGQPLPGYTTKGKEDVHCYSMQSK
Experimental: (§1) ELISA was conducted as we reported previously. Nunc MaxiSorp 96‐well flat‐bottom plates (Thermo Fisher, Waltham, MA, USA) were coated with samples as indicated. The plates were incubated overnight at 4 °C on a shaker to allow binding of the samples to the plate wells. After the incubation, the wells were washed 4× with TBST, filled with 400 µL blocking buffer (110 mM KCl, 5 mM NaHCO3, 5 mM MgCl2, 1 mM EGTA, 0.1 mM CaCl2, 20 mM HEPES, 1% BSA, pH 7.4), and incubated overnight at 4 °C on a shaker. The wells were then washed 4× with TBST, and 100 µL of sample at the desired concentration was added to each well before incubating overnight at 4 °C on a shaker. TBST was then used to wash the wells 4× before proceeding in one of two ways: (a) Biotinylated samples were analyzed by adding 100 µL streptavidin–HRP conjugate in TBST (1 : 2500 dilution) to the samples before incubating for 3 h at RT on a shaker, or (b) samples without biotin were analyzed by adding 100 µL TBST containing the primary antibody at the manufacturer's recommendation and incubating for 3 h at RT on a shaker before washing 4× with TBST. […] The reaction was stopped with 100 µL 2 M H2SO4 after incubating at RT for 0.5–15 min, resulting in a yellow color change that was measured by absorbance at 450 nm. […] Statistical analysis was determined by the GRAPHPAD PRISM 8.4.2 software (San Diego, CA, USA). […]

[2] = molecular target: T2, IGFBP‐3 Glycosylated (Homo sapiens, UniProt P17936); assay: ELISA binding of biotin-HA or biotin-HN to immobilized glycosylated IGFBP-3; conditions: glycosylated IGFBP-3 (50 nM) coated; 0–2 μM biotin-ligand, overnight 4 °C; mean ± SD of three independent experiments in triplicate; read-out: concentration of biotin-HA or biotin-HN that produced 50% of maximum binding
T2 construct: We therefore elected to use the full‐length IGFBP‐3 protein to examine the effect of glycosylation; His; purchased Speed BioSystems YCP1009
T2 sequence (P17936 28-291): as above
Experimental: as §1

[3] = molecular target: T3, IGFBP‐3 Nonglycosylated/Reduced (Homo sapiens, UniProt P17936); assay: ELISA binding of biotin-HA or biotin-HN to immobilized nonglycosylated/reduced IGFBP-3; conditions: nonglycosylated/reduced (TCEP, NEM) IGFBP-3 (50 nM) coated; 0–2 μM biotin-ligand, overnight 4 °C; mean ± SD of three independent experiments in triplicate; read-out: concentration of biotin-HA or biotin-HN that produced 50% of maximum binding
T3 construct: We therefore elected to use the full‐length IGFBP‐3 protein to examine the effect of glycosylation; purchased MyBioSource MBS142177
T3 sequence (P17936 28-291): as above
Experimental: as §1

[4] = molecular target: T4, IGFBP‐3 Glycosylated/Reduced (Homo sapiens, UniProt P17936); assay: ELISA binding of biotin-HA or biotin-HN to immobilized glycosylated/reduced IGFBP-3; conditions: glycosylated/reduced (TCEP, NEM) IGFBP-3 (50 nM) coated; 0–2 μM biotin-ligand, overnight 4 °C; mean ± SD of three independent experiments in triplicate; read-out: concentration of biotin-HA or biotin-HN that produced 50% of maximum binding
T4 construct: We therefore elected to use the full‐length IGFBP‐3 protein to examine the effect of glycosylation; His; purchased Speed BioSystems YCP1009
T4 sequence (P17936 28-291): as above
Experimental: as §1

[5] = molecular target: binding of biotin‐HA to immobilized IGFBP‐3; assay: ELISA, competition of CD44 with IGFBP-3 for binding HA; design: species or system human; conditions: for IC50: 10 nM glycosylated IGFBP-3 coated, biotin-HA 100 nM incubated 1 h with CD44 0–1000 nM, mean ± SD of three independent experiments in triplicate, read-out: concentration of CD44 that produced 50% of maximum binding (50% inhibition of biotin-HA binding to IGFBP-3)
Experimental: ELISA was conducted as we reported previously. Nunc MaxiSorp 96‐well flat‐bottom plates (Thermo Fisher, Waltham, MA, USA) were coated with samples as indicated. The plates were incubated overnight at 4 °C on a shaker to allow binding of the samples to the plate wells. After the incubation, the wells were washed 4× with TBST, filled with 400 µL blocking buffer (110 mM KCl, 5 mM NaHCO3, 5 mM MgCl2, 1 mM EGTA, 0.1 mM CaCl2, 20 mM HEPES, 1% BSA, pH 7.4), and incubated overnight at 4 °C on a shaker. The wells were then washed 4× with TBST, and 100 µL of sample at the desired concentration was added to each well before incubating overnight at 4 °C on a shaker. TBST was then used to wash the wells 4× before proceeding in one of two ways: (a) Biotinylated samples were analyzed by adding 100 µL streptavidin–HRP conjugate in TBST (1 : 2500 dilution) to the samples before incubating for 3 h at RT on a shaker, or (b) samples without biotin were analyzed by adding 100 µL TBST containing the primary antibody at the manufacturer's recommendation and incubating for 3 h at RT on a shaker before washing 4× with TBST. The secondary antibody in 100 µL TBST was then added to the samples following the manufacturer's recommendation and incubated for 1 h at RT on a shaker. Plates containing either biotinylated or nonbiotinylated samples were then washed 5× with TBST followed by the addition of 100 µL TMB resulting in a blue color change. The reaction was stopped with 100 µL 2 M H2SO4 after incubating at RT for 0.5–15 min, resulting in a yellow color change that was measured by absorbance at 450 nm. To monitor nonspecific binding, negative control wells on the plates included, for example, bound IGFBP‐3 then adding all components, streptavidin–horseradish peroxidase and TMB, but without addition of biotin‐HN. Some wells were coated with 2.5, 10, 50, 100, 500, and 5000 nM biotin‐HN or biotin‐HA to allow conversion of the OD measurements to concentrations of bound material. Before analysis, the OD from the data was corrected for nonspecific binding by subtracting the mean background absorbance for the negative controls. Typically, in control wells incubated on each plate, the background binding is about 10–15% of the maximum binding seen with addition of biotin‐HN or biotin‐HA or antibodies. Statistical analysis was determined by the GRAPHPAD PRISM 8.4.2 software (San Diego, CA, USA). Data were expressed as the mean ± SD. Three to five independent experiments were carried out in triplicate for each assay condition.
Glycosylated recombinant His‐tagged IGFBP‐3 (Speed BioSystems) and nonglycosylated recombinant IGFBP‐3 (MyBioSource, San Diego, CA, USA) were used as reported earlier. Glycosylated human CD44 recombinant protein was purchased from Sino Biological (Wayne, PA, USA). To cleave N‐linked glycans, the proteins were treated with PNGase F for 4 h at 37 °C under nondenaturing conditions according to the manufacturer's specification. To reduce the proteins and following previous protocols, the purified proteins were reduced with TCEP‐HCl (2.5 mM in PBS/1%BSA for 20 min at 4 °C) and then alkylated by 5 mM NEM for 30 min at 4 °C, to permanently block disulfide bond formation. As control, nonreduced samples treated with only 5 mM NEM were used. […]

[6] = test system: IGFBP‐3 interaction with importin‐β1; conditions: in vitro; cited from earlier work
Excerpt: (§2) Humanin (HN), first discovered by the Nishimoto laboratory, is a mitochondrial‐derived peptide known to bind with high affinity and specificity to the 18‐amino acid residue (215–232) heparin‐binding domain of IGFBP‐3 [54] that also binds HA.

[7] = test system: amyloid‐β; conditions: aggregation induced by acetylcholinesterase; cited from earlier work
Excerpt: as §2

[8] = test system: A549 human NSCLC cells (CD44-expressing); assay: MTT cell viability, A549; format: cell-based; conditions: protein 50 nM, 48 h, with or without 5F12
Experimental: (§3) HFL1 (ATCC CCL‐153) normal, nontransformed, and nontumorigenic human fibroblast cell line and the human NSCLC cell line, A549 (ATCC CCL‐185), were purchased from the American Type Culture Collection (ATCC, Manassas, VA, USA). Cells were seeded as we reported earlier in 5 mL HyClone Dulbecco's modified Eagle's medium/nutrient mixture F‐12 (DMEM/F12) (GE Healthcare Life Sciences, Pittsburgh, PA, USA), supplemented with 10% Fetalgro bovine growth serum (FBS; RMBIO, Missoula, MT, USA), 50 U·mL^−1 penicillin, and 50 U·mL^−1 streptomycin (Invitrogen Life Technologies, Carlsbad, CA, USA) in 25‐cm^2 tissue culture flasks, and allowed to grow overnight in an incubator at 37 °C, 95% humidity, and 5% CO2. Cells were counted with a hemocytometer after trypan blue staining.
(§4) The MTT reduction assay (Sigma‐Aldrich), used to measure cell viability, was employed as we reported earlier. […] The absorbance was measured at 570 nm in a plate reader. […]
(§5) (A) IGFBP‐3 peptides (50 nM each) were bound to the ELISA plate wells, and then, 200 nM biotin‐HA was added and processed as described in the Materials and methods section. The data were normalized to the control incubated with BSA (control 1), and fold change relative to the control was calculated. […] Cell viability was assessed by the MTT assay. […]

[9] = test system: HFL1 normal human fibroblast cells (CD44-negative); assay: MTT cell viability, HFL1; format: cell-based; conditions: protein 50 nM, 48 h, with or without 5F12
Experimental: as §3, §4, §5

[10] = after reduction; cited from earlier work
Excerpt: We next tested whether reduction of CD44 affects its ability to compete with IGFBP‐3 for binding HA. […] Reduction of this bond inhibited HA‐CD44 interaction in vitro, and the ability of cells to adhere to HA‐coated surfaces was blocked by pretreatment with reducing agents. Moreover, reductio ...

Biotin‐HN: biotin-HN (B-018-26, UniProt Q8IVG9), Phoenix Pharmaceuticals; biotinylated humanin
EC50 [1]: 92 ± 16 nM | EC50 [2]: 104 ± 14 nM | EC50 [3]: 96 ± 12 nM | EC50 [4]: 98 ± 16 nM

CD44 Glycosylated/Reduced: glycosylated CD44, reduced with TCEP-HCl then alkylated by NEM
IC50 [5]: 210 ± 41 nM

CD44 Glycosylated: Glycosylated human CD44 recombinant protein (Sino Biological)
IC50 [5]: 128 ± 24 nM

CD44 Nonglycosylated/Reduced: PNGase F treated CD44, reduced with TCEP-HCl then alkylated by NEM
IC50 [5]: 176 ± 37 nM

CD44 Nonglycosylated: human recombinant CD44 treated with PNGase F to cleave N-linked glycans
ability of CD44 to block HA-IGFBP-3 interaction (in words) ([5]; 10 nM IGFBP-3 coated, biotin-HA 100 nM): more efficient at inhibiting the binding of biotin‐HA to immobilized IGFBP‐3 than glycosylated CD44 | IC50 [5]: 9 ± 2 nM

HN: mitochondrial-derived peptide binding the 18-amino acid residue (215–232) heparin-binding domain of IGFBP-3 (MAPRGFSCLLLLTSEIDLPVKRRA-NH2; UniProt Q8IVG9 1-24, looked up)
effect on IGFBP-3–importin-β1 interaction (in words) [6]: blocks its interaction with importin‐β1 in vitro | effect on amyloid-β aggregation (in words) [7]: aggregation of amyloid‐β induced by acetylcholinesterase is blocked by the presence of HN

glycosylated IGFBP‐3 protein: Glycosylated recombinant His-tagged IGFBP-3 (Speed BioSystems)
A549 cell viability, IGFBP-3 proteins (in words) [8]: a comparable decrease in A549 cell viability | HFL1 cell viability, IGFBP-3 proteins (in words) [9]: lack of effect

nonglycosylated IGFBP‐3 protein: nonglycosylated recombinant IGFBP-3 (MyBioSource)
A549 cell viability, IGFBP-3 proteins (in words) [8]: a comparable decrease in A549 cell viability | HFL1 cell viability, IGFBP-3 proteins (in words) [9]: lack of effect

recombinant soluble CD44: recombinant soluble CD44 of ref 47
effect of reduction on ability of CD44 to bind HA (in words) [10]: inhibit its ability to bind HA
